Literature values in patent US20250057162A1, “FUNGICIDAL COMPOSITIONS” (SYNGENTA CROP PROTECTION AG, priority 2021, published 2025).

Tested on: Mycosphaerella graminicola (Septoria tritici)

COc1ccnc(C(=O)N[C@@H](C)C(=O)O[C@@H](C)C(c2ccc(F)cc2)c2ccc(F)cc2)c1OC(C)=O [Florylpicoxamid, (1S)-2,2-bis(4-fluorophenyl)-1-methylethyl N-{[3-(acetyloxy)-4-methoxy-2-pyridyl]carbonyl}-L-alaninate]
control of wheat leaf blotch disease (in words): particularly effective
